Reference: patent US7420033B2, “Composition of lactoferrin related peptides and uses thereof” (Agennix, Inc., priority 2004, dated 2008)
Several values for one entry are separate records, joined by “and”; a condition that tells them apart may be missing. Equal values may be shown once. Where no end group is shown, it is not given here.

How the values were obtained:
[1] = test system: clinical bacterial isolates; test: Peptide MICs by NCCLS broth microdilution; type: cell-based; settings: geometric mean MIC; 742 clinical bacterial isolates representing 35 species
Procedure: The novel peptides described in this application have shown substantial anti-microbial activity. Peptide MICs were determined by the broth microdilution method recommended by the NCCLS (M7-A5). In each medium, the concentrations of peptide were serial two-fold dilutions ranging from 8192 to 8 μg/mL. Mueller-Hinton broth and Peptone broth were used throughout, using the following media: 1) 5rCAMHB, 2) CAMHB supplemented with 3% lysed horse blood, 3) Haemophilus test medium, 4) peptone broth at pH 7, 5) peptone broth at pH 7.5, 6) peptone broth supplemented with 25 μg/mL calcium and 12.5 μg/mL magnesium, 7) peptone broth supplemented with 1.5 g/L soluble starch. On each day of testing, colony counts were performed on the broth from the growth control well immediately after inoculation from two randomly selected isolates to assure appropriate inoculum density. A total of 742 clinical bacterial isolates representing 35 species were tested.

[2] = test system: MIP3-α; test: MIP3-α expression in hepatocytes, ELISA; type: cell-based, human; settings: 0.04 and 0.2 mg/mL, supernatant at 2 h and 4 h; FIG. 9
Text: Still further, it is envisioned that lactoferrin related peptides stimulate production of MIP-3alpha from hepatocytes. Lactoferrin is known to contribute to the defense systems of the body through its anti-microbial properties. […] The innate immune system is the ‘first line of defense’ of the body against hostile environments and comprise of a variety of effector and cellular mechanisms. This innate immune response is initially likely mediated by the ‘detection system’ of receptors known to be present on the surface of the gut epithelial cells, such as pattern recognition receptors, IL-1 receptor and general ‘scavenger’ receptors. These receptors recognize and respond to specific structural features of the presented molecules. As a result, various intracellular signaling pathways may be initiated (e.g., NFκB, Wnt, etc.) that result in the overall orchestration of the cellular response of the body to the prevailing biological situation (e.g., infection). RhLF and peptides derived from rhLF elicit a similar response of human hepatocytes in vitro in terms of producing an important chemokine—namely MIP-3-alpha. It is surmised that some general structural features that are responsible for the biological response to rhLF are retained in peptides that are structurally related to the parent molecule (rhLF).
MIP3-α has been associated with the stimulation of innate immune responses. […]

[3] = test system: heart allograft; test: Heart allograft survival model in rats; type: in vivo, rats (Wistar Furh recipients, Baffalo donors); settings: FK506 alone, 0.8 mg/kg oral gavage once daily days 0 to +14; n=10
Procedure: The activity of LPF-35 in combination with FK506 was compared with FK506 alone in a heart allograft survival model in rats. Wistar Furh (WF; RT1) recipients of heart allograft from Baffalo donors (BUF; RT1b) were administered oral LPF-35 (5 mg/kg) plus FK506 (0.8 mg/kg), FK506 alone or placebo. The results are presented as a mean±standard deviation (MST±SD). Significance between groups was calculated using Student T-test with p<0.05 considered as significant. In group # 1 control WF recipients of BUF heart allografts (n=5) were untreated and heart allografts were rejected in an acute fashion within 6.4±0.5 days. In group # 2 WF recipients of BUF heart allografts (n=10) were treated daily once (days 0 to +14) with 0.8 mg/kg FK506 delivered by oral gavage. This protocol was effective in prolonging the survival of heart allografts to a MST of 22.3±6.7 days (p=0.0002). […] In group # 3 WF recipients of BUF heart allografts (n=6) were treated daily once (days 0 to +14) with 0.8 mg/kg FK506 delivered by oral gavage in combination with LPF-35 daily for 14 days. This protocol was effective in prolonging the survival of heart allografts to a MST of 49.5±28 days (p=0.0077). […] An effect of reducing organ transplant rejection is indicative of beneficial effects in GVHD.

[4] = test system: Ascaris suum antigen; test: Sheep model of allergic asthma; type: in vivo; settings: lung resistance and carbachol response, FIG. 5, FIG. 6
Procedure: Peptides LPF-32 and LPF-35 were both tested in an established sheep model of allergic asthma. […] Allergic sheep previously characterized as dual responders (displaying early and late phases of bronchoconstriction), were administered peptide followed by inhalation challenge with Ascaris suum antigen.
Baseline dose response curves to aerosolized carbachol were obtained in all sheep 1-3 days before the start of dosing. Sheep were dosed with peptide or placebo by nebulization or oral gavage in the inhaled and oral experiments respectively. The sensitized sheep were then challenged with Ascaris suum antigen to produce early and late airway responses, as measured by mean lung resistance (pulmonary flow resistance, RL). Mean lung resistance was measured using tracheal and pleural pressure catheters connected to a differential pressure transducer. […]
To assess airway responsiveness, cumulative dose response curves to carbachol were obtained, as measured by specific lung resistance, or SRL (SRL=RL * thoracic gas volume). […] Airway hypersensitivity (AH) was determined by calculating the cumulative carbachol dose that increased SRL by 400% over the post-saline value by interpolation from the dose response curve. […]

[5] = test system: hind paw edema; test: Carrageenan mouse paw edema model of inflammation; type: in vivo, ICR derived mice; settings: PO once daily × 5
Procedure: Test substance LPF-35 at 5 mg/kg and reference agent Aspirin at 100 mg/kg were administered orally once daily for 5 consecutive days to groups of 8 ICR (4 male and 4 female) derived mice weighing 22±2 gms. One hour after 5th dose, right hind paw was injected with carrageenan (0.05 ml of 1% suspension intraplantar). The hind paw edema was measured 4 hours later. Convention: reduction of hind paw edema by 30 percent or more indicates significant acute anti-inflammatory activity. Each animal was fasted overnight before Carrageenan challenge.

Compound	MIC GeoMean [1]	also measured
RRRRRRSVQWQAVSQPIATIQFQWQRNMRKRRR [LPF-35]	15 µg/mL	expression of MIP3-α in Hepatocytes [2]: stimulates
RRRRRRSVQWQAVSQPEATKQFQWQRNMRKRRR [LPF-31]	41 µg/mL	
RRRRRRSVQWAAVSQPIATEAFQWQRNMRKRRR [LPF-25]	66 µg/mL	
RRRRRRSVQWQAVSQPQATGQFQWQRNMRKRRR [LPF-34]	32 µg/mL	
C=CC[C@@H]1/C=C(\C)C[C@H](C)C[C@H](OC)[C@H]2O[C@@](O)(C(=O)C(=O)N3CCCC[C@H]3C(=O)O[C@H](/C(C)=C/[C@@H]3CC[C@@H](O)[C@H](OC)C3)[C@H](C)[C@@H](O)CC1=O)[C@H](C)C[C@@H]2OC [FK506]		survival of heart allografts, MST ± SD [3]: 22.3±6.7 days
RRRRRRSVQWQAVSQPGATKQFQWQRNMRKRRR [LPF-32]	25 µg/mL	late phase inflammation and airway hyperresponsiveness [4]: substantially inhibit
RRRRRRSVQWAAVSQPIATKAFQWQRNMRKRRR [LPF-36]	24 µg/mL	
CC(=O)Oc1ccccc1C(=O)O [Aspirin]		Paw Volume LP ([5]; LP, average n=8): 12.38 ×0.01 ml; Paw Volume Diff. ([5]; RP minus LP): 5.00 ×0.01 ml; % Inhibition ([5]; hind paw edema vs vehicle): 32%; Paw Volume RP ([5]; right hind paw injected with carrageenan, 4 hours later, average n=8): 17.38 ×0.01 ml
RRRRRRSVQWQAVSQPIATKQFQWQRNMRKRRR [LPF-33]	28 µg/mL	
RRRRRRSVQWQAVSQPIATEQFQWQRNMRKRRR [LPF-24]	43 µg/mL and 51 µg/mL	
